Assay results from article PMC6986443, “T‐495, a novel low cooperative M1 receptor positive allosteric modulator, improves memory deficits associated with cholinergic dysfunction and is characterized by low gastrointestinal side effect risk” (Pharmacology Research & Perspectives, 2020).
Where two headings read alike, the source gives them in different places.

Tests used:
[1] = tested on: IP1 production in the mouse hippocampus; assay: In vivo IP1 assay after repeated administration for 13 days; conditions: for Basal IP1 level in the mouse hippocampus: after repeated treatment 10 mg/kg p.o. for 13 days, mean ± SEM, n = 10; for magnitude of IP1 increase in mouse hippocampus after 13 days of pretreatment: pretreatment 10 mg/kg p.o. once daily, vs single administration
Procedure: (§1) Eight‐week‐old Long‐Evans rats, 8‐ to 9‐week‐old C57BL/6J mice, and 22‐ or 29‐week‐old M1R KO mice and their WT littermates were used in this study. On the day of the experiment, animals were placed in individual cages and acclimated for more than 1 hour. A test compound or vehicle was administered 2 hours before the animals were sacrificed. […] LiCl (10 mmol/kg, s.c.) was injected 1 hour before sacrifice. In the repeated administration study, a test compound was administered to mice once daily for 13 days; on day 14, animals were treated with a test compound and LiCl (10 mmol/kg, s.c.) and then sacrificed. Animals were killed by decapitation, and blood was collected into tubes containing ethylenediaminetetraacetic acid for pharmacokinetic analysis; brains were quickly dissected, frozen on dry ice, and stored at −80°C until analysis. Brain tissues were homogenized in 19 (for rat tissues) or 39 (for mouse tissue) volumes of homogenization buffer (10 mmol/L HEPES pH 7.4, 50 mmol/L LiCl, 150 mmol/L NaCl, and 1% Triton X‐100), and the homogenate was incubated on a rotator for 1 hour, followed by centrifugation. The supernatant was diluted with 39 (for rat tissues) or 19 (for mouse tissues) volumes of dilution buffer (10 mmol/L HEPES pH 7.4, 50 mmol/L LiCl, and 150 mmol/L NaCl). IP1 and protein concentrations in the diluted supernatant were measured using IP‐One HTRF assay kit (Cisbio Bioassays) and BCA Protein Assay Kit (Thermo Fisher Scientific Inc), respectively, according to the manufacturers’ instructions. IP1 production was expressed as the ratio of IP1 to protein concentrations.

[2] = Concentrations in mouse plasma and brain after single and repeated treatment; format: in vivo; conditions: C57BL/6J, oral, mean ± SD
Procedure: as §1

[3] = tested on: panel of 106 targets, including receptors, enzymes, ion channels, and transporters; assay: Selectivity panel (Eurofins Panlabs), overall; conditions: 10 μmol/L
Source text: (§2) The selectivity of T‐495 at 10 μmol/L against a panel of 106 targets, including receptors, enzymes, ion channels, and transporters, was characterized (Eurofins Panlabs Taiwan Ltd., Taipei, Taiwan).

[4] = target: T1, Choline esterase, acetyl, ACES (Homo sapiens, UniProt P22303); assay: Selectivity panel; format: biochemical
T1 construct: purchased Eurofins Panlabs Taiwan Ltd
T1 sequence (P22303 32-614): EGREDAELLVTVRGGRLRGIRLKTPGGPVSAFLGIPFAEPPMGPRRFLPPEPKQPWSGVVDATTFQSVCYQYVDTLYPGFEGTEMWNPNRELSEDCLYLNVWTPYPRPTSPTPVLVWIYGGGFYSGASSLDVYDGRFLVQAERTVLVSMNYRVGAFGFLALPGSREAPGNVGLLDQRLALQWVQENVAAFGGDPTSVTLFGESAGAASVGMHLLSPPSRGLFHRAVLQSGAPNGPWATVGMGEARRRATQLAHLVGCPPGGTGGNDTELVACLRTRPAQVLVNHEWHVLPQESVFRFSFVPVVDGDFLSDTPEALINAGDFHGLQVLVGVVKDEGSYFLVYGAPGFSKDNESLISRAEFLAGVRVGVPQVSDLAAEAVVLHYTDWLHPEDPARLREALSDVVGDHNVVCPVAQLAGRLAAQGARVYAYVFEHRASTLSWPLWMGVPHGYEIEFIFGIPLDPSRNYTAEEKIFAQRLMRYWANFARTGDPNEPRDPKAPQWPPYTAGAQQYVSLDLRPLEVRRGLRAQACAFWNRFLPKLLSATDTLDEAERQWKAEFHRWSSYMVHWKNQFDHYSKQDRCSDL
Source text: as §2

Protein kinase A (PKA) = assay: Selectivity panel; format: biochemical
Source text: as §2

Phosphodiesterase PDE3 = assay: Selectivity panel; format: biochemical
Source text: as §2

Carbonic anhydrase II = target: T2, Carbonic anhydrase II (Homo sapiens, UniProt P00918); assay: Selectivity panel; format: biochemical
T2 construct: purchased Eurofins Panlabs Taiwan Ltd
Source text: as §2

[5] = target: T3, Metalloproteinase, Neutral Endopeptidase (Homo sapiens, UniProt P08473); assay: Selectivity panel; format: biochemical
T3 construct: purchased Eurofins Panlabs Taiwan Ltd
T3 sequence (P08473 whole entry): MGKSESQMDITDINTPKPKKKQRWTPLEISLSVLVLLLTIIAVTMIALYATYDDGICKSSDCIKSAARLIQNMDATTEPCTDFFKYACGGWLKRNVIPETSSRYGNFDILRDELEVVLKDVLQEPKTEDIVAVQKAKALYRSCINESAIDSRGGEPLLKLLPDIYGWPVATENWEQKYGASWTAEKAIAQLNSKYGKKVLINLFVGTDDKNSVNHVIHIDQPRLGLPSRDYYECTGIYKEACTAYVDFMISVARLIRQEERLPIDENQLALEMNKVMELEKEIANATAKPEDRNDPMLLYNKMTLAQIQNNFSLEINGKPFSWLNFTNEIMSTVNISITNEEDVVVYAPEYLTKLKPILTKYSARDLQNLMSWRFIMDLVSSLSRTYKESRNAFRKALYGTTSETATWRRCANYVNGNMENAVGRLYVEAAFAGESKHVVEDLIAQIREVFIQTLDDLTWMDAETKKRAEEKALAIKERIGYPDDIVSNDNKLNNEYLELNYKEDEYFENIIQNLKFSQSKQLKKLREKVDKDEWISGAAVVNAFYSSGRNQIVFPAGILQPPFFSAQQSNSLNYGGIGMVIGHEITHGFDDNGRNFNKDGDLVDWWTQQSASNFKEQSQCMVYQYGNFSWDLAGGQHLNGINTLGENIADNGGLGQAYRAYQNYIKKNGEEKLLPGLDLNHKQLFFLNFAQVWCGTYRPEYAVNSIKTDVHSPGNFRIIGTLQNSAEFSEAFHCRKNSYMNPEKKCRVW
Source text: as §2

[6] = target: T4, Matrix metalloproteinase-7 (MMP-7) (Homo sapiens, UniProt P09237); assay: Selectivity panel; format: biochemical
T4 construct: purchased Eurofins Panlabs Taiwan Ltd
T4 sequence (P09237 95-267): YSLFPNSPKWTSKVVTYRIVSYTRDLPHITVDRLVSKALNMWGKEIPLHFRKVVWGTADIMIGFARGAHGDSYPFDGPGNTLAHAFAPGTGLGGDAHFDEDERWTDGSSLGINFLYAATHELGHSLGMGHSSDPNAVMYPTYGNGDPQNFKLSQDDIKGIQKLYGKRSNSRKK
Source text: as §2

[7] = tested on: Catechol-O-Methyl Transferase (COMT); assay: Selectivity panel; format: biochemical
Source text: as §2

[8] = target: T5, Matrix metalloproteinase-1 (MMP-1) (Homo sapiens, UniProt P03956); assay: Selectivity panel; format: biochemical
T5 construct: purchased Eurofins Panlabs Taiwan Ltd
T5 sequence (P03956 100-469): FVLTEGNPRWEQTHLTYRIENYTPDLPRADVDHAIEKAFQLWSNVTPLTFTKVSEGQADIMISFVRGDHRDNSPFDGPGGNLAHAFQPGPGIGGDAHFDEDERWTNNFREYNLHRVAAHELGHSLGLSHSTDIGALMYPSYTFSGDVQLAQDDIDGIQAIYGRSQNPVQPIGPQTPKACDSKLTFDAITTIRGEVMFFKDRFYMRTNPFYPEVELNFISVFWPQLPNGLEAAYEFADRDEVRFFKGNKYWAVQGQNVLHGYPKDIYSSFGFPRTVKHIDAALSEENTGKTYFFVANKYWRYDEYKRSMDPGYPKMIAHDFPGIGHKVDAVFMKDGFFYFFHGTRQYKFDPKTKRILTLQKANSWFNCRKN
Source text: as §2

[9] = tested on: Protein kinase C (PKC), non-selective; assay: Selectivity panel; format: biochemical
Source text: as §2

[10] = tested on: IP1 production in the rat hippocampus; assay: In vivo IP1 assay, rat hippocampus; conditions: LiCl 10 mmol/kg s.c., vs vehicle
Procedure: as §1

[11] = tested on: ileum segment of ICR mice; assay: Spontaneous ileum contraction; design: species or system mouse; conditions: 0.01, 0.1, and 1 μmol/L applied cumulatively
Procedure: ICR mice were fasted overnight and sacrificed by decapitation, and the ileum was removed and the luminal contents were gently flushed out with ice‐cold modified Krebs buffer (NaCl, 120.7 mmol/L; KCl, 5.9 mmol/L; NaHCO3, 15.5 mmol/L; MgCl2, 1.2 mmol/L; NaH2PO4, 1.2 mmol/L; CaCl2, 2.5 mmol/L; glucose, 11.5 mmol/L). The ileum segment (approximately 5 mm in length) was suspended in a 10‐mL organ bath filled with oxygenated (95% O2 and 5% CO2) modified Krebs buffer at 37°C. One end of the ileum segment was tied to a hook and the other end was secured with a silk thread to an isometric force transducer (MLT050/A, ADInstruments) connected to a data acquisition system (PowerLab 8/30 ML870 and Octal Bridge Amp ML228, ADInstruments). The ileum segment was subjected to an initial tension of 0.3 to 0.4 g and was allowed to equilibrate for at least 30 minutes. After the equilibration period, spontaneous contractions were measured for 3 minutes (pretreatment) and then increasing concentrations of a test compound (0.01, 0.1, and 1 μmol/L) were cumulatively applied at 3‐minute intervals. LabChart software (ADInstruments) was used to analyze the spontaneous contractions. The mean amplitude of spontaneous contractions at each concentration was normalized to that observed at pretreatment.

[12] = tested on: CaMKIIα‐tTA/A53T α‐syn dTg mice; assay: Contextual fear conditioning (CFC) test; format: in vivo, mouse
Procedure: The CFC test was performed in a clear conditioning chamber (33 cm wide, 25 cm long, and 28 cm high; O’Hara & Co., Ltd.) surrounded by a sound‐attenuating box. The illumination in the chamber was maintained at 100 lux. Conditioned stimulus (CS) and unconditioned stimulus (US) were automatically delivered by a tone generator and a shock generator (O’Hara & Co., Ltd.), respectively. On Day 1 (habituation phase), vehicle was orally administered, and mice were placed in the conditioning chamber. They were allowed to freely explore for 120 seconds and then returned to their home cages. […] Mice were placed in the chamber for 120 seconds before the onset of a tone (CS, 60 dB for 30 s). The last 2 seconds of the CS were paired with a foot shock (US, 0.25 mA), and mice were removed and returned to their home cages 180 seconds after the US. […] Mice were again placed in the same chamber for 180 seconds. Freezing behavior was analyzed using ImageJ FZ4 (O’Hara & Co., Ltd.) during the conditioning and retention phases.

patients with AD = tested on: patients with AD; design: method as in PMID 29955661; conditions: cited from earlier work
[13] = brain (hippocampus), 10 mg/kg, mouse hippocampus, pretreated with the compound 10 mg/kg p.o. for 13 days, 10 mg/kg p.o., read-out: Brain concentration
[14] = brain (hippocampus), 10 mg/kg, mouse hippocampus, vehicle-pretreated, 10 mg/kg p.o., read-out: Brain concentration
[15] = brain (hippocampus), 30 mg/kg, mouse hippocampus, pretreated with the compound 10 mg/kg p.o. for 13 days, 30 mg/kg p.o., read-out: Brain concentration
[16] = brain (hippocampus), 30 mg/kg, mouse hippocampus, vehicle-pretreated, 30 mg/kg p.o., read-out: Brain concentration
[17] = plasma, 10 mg/kg, pretreated with the compound 10 mg/kg p.o. for 13 days, 10 mg/kg p.o., read-out: Plasma concentration
[18] = plasma, 10 mg/kg, vehicle-pretreated, 10 mg/kg p.o., n = 10, read-out: Plasma concentration
[19] = plasma, 30 mg/kg, pretreated with the compound 10 mg/kg p.o. for 13 days, 30 mg/kg p.o., read-out: Plasma concentration
[20] = plasma, 30 mg/kg, vehicle-pretreated, 30 mg/kg p.o., n = 10, read-out: Plasma concentration

| SMILES | Basal IP1 level in the mouse hippocampus [1] | magnitude of IP1 increase in mouse hippocampus after 13 days of pretreatment [1] | concentration at 2 h [2, 13] | concentration at 2 h [2, 14] | concentration at 2 h [2, 15] | concentration at 2 h [2, 16] | concentration at 2 h [2, 17] | concentration at 2 h [2, 18] | concentration at 2 h [2, 19] | concentration at 2 h [2, 20] | IP1 production in the rat hippocampus ([10]; 10 mg/kg p.o.) | concentration at which spontaneous ileum contraction was increased [11] | also measured |
| --- | --- | --- | --- | --- | --- | --- | --- | --- | --- | --- | --- | --- | --- |
| Cc1c(Cc2ccc(Cl)nc2)cc2c(c1Cl)OCN([C@H]1CCC[C@@H]1O)C2=O [T‐495, 8‐chloro‐6‐((6‐chloropyridin‐3‐yl)methyl)‐3‐((1S,2S)‐2‐hydroxycyclopentyl)‐7‐methyl‐2,3‐dihydro‐4H‐1,3‐benzoxazin‐4‐one] | 1.09± 0.03 nmol/mg protein | comparable to those after single administration | 879 ± 159 ng/g | 956 ± 122 ng/g | 4090 ± 599 ng/g | 3650 ± 744 ng/g | 1300 ± 338 ng/mL | 1150 ± 215 ng/mL | 5420 ng/mL | 4890 ± 923 ng/mL | significantly increased | 1 µmol/L | significant inhibition or stimulation (≥50%) in panel of 106 targets [3]: No significant inhibition or stimulation (≥50%) was observed, except for two targets; inhibition at 10 µM [4]: -2%; % inhibition at 10 μM (Protein kinase A (PKA)): -4%; % inhibition at 10 μM (Phosphodiesterase PDE3): 2%; inhibition at 10 µM (Carbonic anhydrase II): -9%; inhibition at 10 µM [5]: 10%; inhibition at 10 µM [6]: 3%; % inhibition at 10 μM [7]: 2%; inhibition at 10 µM [8]: 5%; % inhibition at 10 μM [9]: 0%; IP1 production in the rat hippocampus ([10]; 30 mg/kg p.o.): significantly increased; level of freezing behavior during the conditioning phase ([12]; 3 mg/kg p.o.): did not change; reduced level of freezing behavior during the retention phase ([12]; 3 mg/kg p.o. 1 h before conditioning and retention): significantly reversed |
| Cc1ccc(Cc2cc3c(=O)n([C@H]4CCCC[C@@H]4O)cnc3c3ccccc23)cn1 [MK‐7622, 3‐((1S,2S)‐2‐hydroxycyclohexyl)‐6‐((6‐methylpyridin‐3‐yl)methyl)benzo[h]quinazolin‐4(3H)‐one, reference compound] | 0.99± 0.05 nmol/mg protein | comparable to those after single administration | 126 ± 28.7 ng/g | 137 ± 23.1 ng/g | 813 ± 262 ng/g | 787 ± 284 ng/g | 490 ± 86.4 ng/mL | 624 ± 61.4 ng/mL | 2430 ± 550 ng/mL | 2340 ± 518 ng/mL | significantly increased | ≤ 0.01 µmol/L | cognition as adjunctive therapy with AChEIs (patients with AD): did not improve cognition; patients affected by diarrhea (patients with AD; estimated effective dose): 15% |
